Laboratory results taken from patent US20150224164A1, “TREATMENT OF AUTISM SPECTRUM DISORDERS USING GLYCYL-L-2-METHYLPROLYL-L-GLUMATIC ACID” (Neuren Pharmaceuticals Limited, priority 2013, published 2015).
Where a SMILES comes first, the peptide text is derived from it.

Key:
[1] = tested on: layer 5 pyramidal neurons of motor cortex, MeCP2 knockout; test: Golgi staining, cortical spine density (Example 10); format: in vivo, mouse; conditions: P28 mice; knockout with treatment
Procedure: Samples (<1 cm) from P28 mice are fixed in 10% formalin and 3% potassium bichromate for 24 hours. Tissue is then transferred into 2% silver nitrate for 2 days in the dark at room temperature. Sections from these samples are then cut at 50 μm thickness into distilled water. Sections corresponding to motor cortex are mounted onto slides, air dried for 10 minutes, and then dehydrated through sequential rinses of 95% alcohol, 100% alcohol, and xylene, and then sealed with a coverslip. Images re acquired at 10× (whole cell) and 100× (spine imaging) using a Zeiss Pascal 5 Exciter confocal microscope. We use Golgi staining to label neurons sparsely and distinctly, and applied high-resolution confocal imaging to measure dendritic spine density and morphology in the labelled cells, restricting analysis to layer 5 pyramidal neurons in sections of motor cortex from critical period mice (P28). While low-magnification imaging clearly delineates the extent of the dendrites of the pyramidal cells we use higher magnifications to count synaptic contacts and determine the morphological class of each spine. We classify spines as either large and bulbous (“mushroom”, M), short and stubby (“stubby”, S), short and thin (“thin”, T) or filopodia (F).

MeCP2 deficient mice = tested on: MeCP2 deficient mice
Procedure: We treated hemizygous MeCP2(1lox) male mice with 20 mg/kg/day of G-2-MePE or saline, (0.01% BSA, n=15 per group in survival experiment and n=20 in the LTP experiment). The treatments were administered intraperitoneally from 4 weeks after birth. For the survival experiments the treatment was maintained through the course of the experiment. For the LTP experiment the mice were treated until week 9 when they were used for slice preparation.
MeCP2 deficient mutant mice develop RTT symptoms at about 4-6 weeks of age and die between 10-12 weeks (Chen et al., 2001. Nat Genet 27: 327-331). We compared the survival of the wild type controls and the MeCP2 deficient animals in vehicle- and G-2-MePE-treated groups. Survival was measured weekly from start of treatment (4 weeks) and used to produce Kaplan-Meier survival curves to show the proportion of mice that survived (y axis) at each weekly interval (x axis) (see FIG. 22).

[2] = tested on: layer 5 cortical neurons of MeCP2-/y mice; test: Whole-cell recordings of spontaneous EPSCs in acute brain slices (Example 10); format: in vivo, mouse; conditions: 20 mg/kg i.p. daily P15 to P28-P32; vs vehicle
Procedure: For the survival measurements, the nocturnal activity analysis and the immunoblot analysis, G-2-MePE (synthesised Albany Molecular Research Inc. (Albany, N.Y.) and supplied by Neuren Pharmaceuticals Limited) is administered daily via intra-peritoneal injections (20 mg/kg, vehicle=saline, 0.01% BSA). The treatment starts at P15 and is maintained throughout the course of the experiments. For intracellular physiology experiments, the mice are injected daily with G-2-MePE (20 mg/kg body weight, vehicle=saline, 0.01% BSA) for 2 weeks, from P15 to P28-P32 when they are used for acute slice preparation. For optical imaging experiments, mice are injected with G-2-MePE (20 mg/kg body weight, vehicle=saline, 0.01% BSA) daily from the day of the lid suture to the day of imaging. […]
Borosilicate pipettes (3-5 MΩ, WPI) are pulled using a Sutter P-80 puller (Sutter Instruments). Cells are visualized with an Achroplan 40× water-immersion lens with infrared-DIC optics (Zeiss) and detected with an infrared camera (Hamamatsu) projecting to a video monitor. […] Then in current clamp ˜10 pulses (500 ms, 40-140 pA at 10 pA increments), are applied to quantify evoked firing rates and cellular excitability. […] Analysis is performed using a custom software package written in Matlab, with all events detected according to automated thresholds and blindly verified for each event individually by the experimenter.

## C[C@@]1(C(=O)N[C@@H](CCC(=O)O)C(=O)O)CCCN1C(=O)CN [Example G-2-MePE, Glycyl-L-2-methylprolyl-L-glutamic acid] (HELM PEPTIDE1{G.[C[C@@]1(C(=O)[*:2])CCCN1[*:1]].E}$$$$V2.0)
[1]
  density of spines per unit branch: largely ameliorated
MeCP2 deficient mice; 20 mg/kg/day i.p. from 4 weeks, saline about 11 weeks
  time at which 50% of the animals survived: about 15 weeks
MeCP2 deficient mice; 20 mg/kg/day i.p., controls 13.5 weeks
  time to 50 percent death, re-examination with control group re-run: 16 weeks
MeCP2 deficient mice; 20 mg/kg/day i.p., untreated 11 weeks
  time to 50 percent death, data initially presented: 16 weeks
MeCP2 deficient mice; mouse, in vivo
  safety in mecp2 mice: No safety concerns
[2]
  spontaneous EPSC amplitude: significantly larger in amplitude
